Assays:
[1] = system: Human immunodeficiency virus 1; experiment: Antiviral activity against HIV-1 IIIB harboring reverse transcriptase Y181C mutant infected in human MT4 cells by MTT assay; assay type: functional, organism-based; details: Human immunodeficiency virus 1, IIIB
[2] = system: Human immunodeficiency virus 1; experiment: microbe, parasite or virus in culture; details: Human immunodeficiency virus 1, IIIB, MT4
Description: Antiviral activity against wild type HIV-1 IIIB infected in human MT4 cells assessed as protection against virus-induced cytopathic effect by MTT assay

[3] = system: Human immunodeficiency virus 1; experiment: Antiviral activity against HIV-1 IIIB harboring reverse transcriptase E138K mutant infected in human MT4 cells by MTT assay; assay type: functional, organism-based; details: Human immunodeficiency virus 1, IIIB
[4] = system: Human immunodeficiency virus 1; experiment: Antiviral activity against HIV-1 IIIB harboring reverse transcriptase K103N mutant infected in human MT4 cells by MTT assay; assay type: functional, organism-based; details: Human immunodeficiency virus 1, IIIB
[5] = Cytotoxicity against human MT4 cells assessed as reduction in cell viability by MTT assay; assay type: toxicity, cell-based
[6] = system: Human immunodeficiency virus 1; experiment: Antiviral activity against HIV-1 IIIB harboring reverse transcriptase […] mutant infected in human MT4 cells by MTT assay; assay type: functional, organism-based; details: Human immunodeficiency virus 1, IIIB
in vitro [7] = details: human, MT4 cells
Description: Selectivity index, ratio of CC50 for cytotoxicity against human MT4 cells to EC50 for antiviral activity against wild type HIV-1 IIIB infected in human MT4 cells

[8] = system: Human immunodeficiency virus 1; experiment: microbe, parasite or virus in culture; details: Human immunodeficiency virus 1, IIIB, MT4; remark: listed apart in the source
Description: Antiviral activity against HIV-1 IIIB harboring reverse transcriptase Y188L mutant infected in human MT4 cells by MTT assay

[9] = molecular target: Human immunodeficiency virus type 1 reverse transcriptase (Human immunodeficiency virus 1, UniProt Q72547)
Description: Inhibition of HIV-1 reverse transcriptase using oligo(dT)16 as primer measured after 40 mins by picogreen-dye based spectrofluorometric analysis

in vitro [10] = details: human
in vitro [11] = details: human; remark: listed apart in the source
[12] = Metabolic stability in human liver assessed as intrinsic clearance in microsomes at 1 uM measured up to 45 mins in presence of NADPH by LC-MS/MS analysis; assay type: ADME; details: read-out: CLH

| Structure (SMILES) | EC50 [1] [nM] | EC50 [2] [nM] | EC50 [3] [nM] | EC50 [4] [nM] | CC50 [5] [nM] | EC50 [6] [nM] | selectivity ratio (in vitro [7]) | EC50 [8] [nM] | IC50 [9] [nM] | half-life at 0.75 h, 1 µM (in vitro [10]; liver microsomes) [min] | CLint scaled at 0.75 h, 1 µM (in vitro [11]; liver) [mL/min/kg] | microsomal CLint at 1 µM [12] [µL/min/mg] | half-life at 0.75 h, 1 µM (in vitro [10]; microsomes) [min] | CLint scaled at 0.75 h, 1 µM (in vitro [11]) [mL/min/kg] |
| --- | --- | --- | --- | --- | --- | --- | --- | --- | --- | --- | --- | --- | --- | --- |
| Cc1cc(-c2cccc(C#N)c2)ccc1Oc1cc(N)nc(Nc2ccc(C#N)cc2)n1 | 450 | 5.5 | 36 | 105 | 27400 | 287 | 4940 | 6550 | 41 | – | – | – | – | – |
| Cc1cc(-c2ccc(Cl)cc2)cc(C)c1Oc1cc(N)nc(Nc2ccc(C#N)cc2)n1 | – | 34.2 | – | – | 21500 | – | 628 | – | 102 | – | – | – | – | – |
| Cc1cc(-c2ccccc2)ccc1Oc1cc(N)nc(Nc2ccc(C#N)cc2)n1 | – | 19 | – | – | 20000 | – | 1050 | – | 39 | – | – | – | – | – |
| COc1ccccc1-c1cc(C)c(Oc2cc(N)nc(Nc3ccc(C#N)cc3)n2)c(C)c1 | – | 42.8 | – | – | 21800 | – | 508 | – | 122 | – | – | – | – | – |
| Cc1cc(-c2ccc(C#N)c(C#N)c2)cc(C)c1Oc1cc(N)nc(Nc2ccc(C#N)cc2)n1 | – | 5.69 | – | – | 17600 | – | 3090 | – | 40 | – | – | – | – | – |
| Cc1cc(Oc2cc(N)nc(Nc3ccc(C#N)cc3)n2)ccc1-c1ccc(C#N)cc1 | 33 | 2.3 | 12 | 10 | 34300 | 71 | 15100 | 1420 | 26 | 38.5 | 1.08 | 36 | – | – |
| Cc1cc(-c2ccccc2F)cc(C)c1Oc1cc(N)nc(Nc2ccc(C#N)cc2)n1 | – | 9.6 | – | – | 29300 | – | 3060 | – | 46 | – | – | – | – | – |
| Cc1cc(-c2ccc(F)cc2)cc(C)c1Oc1cc(N)nc(Nc2ccc(C#N)cc2)n1 | – | 13.6 | – | – | 23100 | – | 1700 | – | 61 | – | – | – | – | – |
| Cc1cc(C#N)cc(C)c1Oc1nc(Nc2ccc(C#N)cc2)nc(N)c1Br [ETRAVIRINE] | – | 2.9 | 6 | 2 | > 4600 | 6 | – | 18 | – | – | – | – | – | – |
| Cc1cc(-c2cccc(F)c2)cc(C)c1Oc1cc(N)nc(Nc2ccc(C#N)cc2)n1 | – | 15.8 | – | – | 24700 | – | 1570 | – | 52 | – | – | – | – | – |
| O=C1Nc2ccc(Cl)cc2[C@@](C#CC2CC2)(C(F)(F)F)O1 [EFAVIRENZ] | 7 | – | – | – | > 6340 | 30 | – | – | – | – | – | – | – | – |
| Cc1cc(-c2cccc(C#N)c2)cc(C)c1Oc1cc(N)nc(Nc2ccc(C#N)cc2)n1 | 73 | 7 | 46 | 8 | 20200 | 88 | 2890 | 878 | 42 | – | – | – | – | – |
| COc1cccc(-c2cc(C)c(Oc3cc(N)nc(Nc4ccc(C#N)cc4)n3)c(C)c2)c1 | – | 9.7 | – | – | 19300 | – | 1980 | – | 73 | – | – | – | – | – |
| Cc1ccc(-c2cc(C)c(Oc3cc(N)nc(Nc4ccc(C#N)cc4)n3)c(C)c2)cc1 | – | 40.1 | – | – | 10000 | – | 249 | – | 69 | – | – | – | – | – |
| Cc1cc(-c2ccccc2)cc(C)c1Oc1cc(N)nc(Nc2ccc(C#N)cc2)n1 | – | 9.7 | – | – | 25600 | – | 2640 | – | 45 | – | – | – | – | – |
| Cc1ccnc2c1NC(=O)c1cccnc1N2C1CC1 [NEVIRAPINE] | 11500 | – | – | 5840 | > 15000 | 1360 | – | > 15000 | – | – | – | – | – | – |
| Cc1cc(-c2cccc(Cl)c2)cc(C)c1Oc1cc(N)nc(Nc2ccc(C#N)cc2)n1 | – | 38 | – | – | 22300 | – | 588 | – | 85 | – | – | – | – | – |

| Structure (SMILES) | EC50 [1] [nM] | EC50 [2] [nM] | EC50 [3] [nM] | EC50 [4] [nM] | CC50 [5] [nM] | EC50 [6] [nM] | selectivity ratio (in vitro [7]) | EC50 [8] [nM] | IC50 [9] [nM] | half-life at 0.75 h, 1 µM (in vitro [10]; liver microsomes) [min] | CLint scaled at 0.75 h, 1 µM (in vitro [11]; liver) [mL/min/kg] | microsomal CLint at 1 µM [12] [µL/min/mg] | half-life at 0.75 h, 1 µM (in vitro [10]; microsomes) [min] | CLint scaled at 0.75 h, 1 µM (in vitro [11]) [mL/min/kg] |
| --- | --- | --- | --- | --- | --- | --- | --- | --- | --- | --- | --- | --- | --- | --- |
| Cc1cc(-c2ccccc2C#N)cc(C)c1Oc1cc(N)nc(Nc2ccc(C#N)cc2)n1 | – | 7.12 | – | – | 25400 | – | 3570 | – | 40 | – | – | – | – | – |
| Cc1cc(-c2ccccc2Cl)cc(C)c1Oc1cc(N)nc(Nc2ccc(C#N)cc2)n1 | – | 28.4 | – | – | 25100 | – | 882 | – | 100 | – | – | – | – | – |
| Cc1cc(-c2ccc(C#N)c(F)c2)cc(C)c1Oc1cc(N)nc(Nc2ccc(C#N)cc2)n1 | – | 5.33 | – | – | 5000 | – | 937 | – | 50 | – | – | – | – | – |
| O=C(O)Cc1ccccc1Nc1c(Cl)cccc1Cl [DICLOFENAC] | – | – | – | – | – | – | – | – | – | – | – | 150 | 9.25 | 4.49 |
| COc1ccc(-c2cc(C)c(Oc3cc(N)nc(Nc4ccc(C#N)cc4)n3)c(C)c2)cc1 | – | 7.7 | – | – | 10700 | – | 1390 | – | 54 | – | – | – | – | – |
| Cc1cc(-c2ccc(C#N)c(C#N)c2)ccc1Oc1cc(N)nc(Nc2ccc(C#N)cc2)n1 | – | 10.9 | – | – | 76700 | – | 7040 | – | 90 | – | – | – | – | – |
| Cc1cc(-c2ccccc2C#N)ccc1Oc1cc(N)nc(Nc2ccc(C#N)cc2)n1 | – | 9.84 | – | – | 28600 | – | 2900 | – | 50 | – | – | – | – | – |
| COc1cc2cc(C#N)ccc2c(OC)c1Oc1cc(N)nc(Nc2ccc(C#N)cc2)n1 | – | 5 | – | – | 19000 | 38 | 3500 | – | – | – | – | – | – | – |
| Cc1cccc(-c2cc(C)c(Oc3cc(N)nc(Nc4ccc(C#N)cc4)n3)c(C)c2)c1 | – | 68.3 | – | – | 27600 | – | 404 | – | 152 | – | – | – | – | – |
| Cc1ccccc1-c1cc(C)c(Oc2cc(N)nc(Nc3ccc(C#N)cc3)n2)c(C)c1 | – | 35.2 | – | – | 25600 | – | 726 | – | 121 | – | – | – | – | – |
| Cc1cc(-c2ccc(C#N)cc2)cc(C)c1Oc1cc(N)nc(Nc2ccc(C#N)cc2)n1 | 16 | 4.7 | 12 | 4 | 18100 | 8 | 3870 | 82 | 37 | – | – | – | – | – |
| Cc1cc(-c2ccc(F)cc2)ccc1Oc1cc(N)nc(Nc2ccc(C#N)cc2)n1 | – | 9.5 | – | – | 20100 | – | 2120 | – | 50 | – | – | – | – | – |
| Cc1cc(-c2cccc(F)c2)ccc1Oc1cc(N)nc(Nc2ccc(C#N)cc2)n1 | – | 60.6 | – | – | 11300 | – | 187 | – | 101 | – | – | – | – | – |
| Cc1cc(-c2ccc(C#N)cc2)ccc1Oc1cc(N)nc(Nc2ccc(C#N)cc2)n1 | 32 | 2 | 9 | 3 | 10400 | 38 | 5250 | 1110 | 29 | – | – | – | – | – |
| COc1cc(Oc2cc(N)nc(Nc3ccc(C#N)cc3)n2)ccc1-c1ccc(C#N)cc1 | 28 | 2.3 | 13 | 12 | 12900 | 36 | 5590 | 1360 | 30 | – | – | – | – | – |
| Cc1cc(-c2ccccc2F)ccc1Oc1cc(N)nc(Nc2ccc(C#N)cc2)n1 | – | 11.5 | – | – | 29500 | – | 2560 | – | 45 | – | – | – | – | – |
| Cc1cc(-c2ccc(C#N)c(F)c2)ccc1Oc1cc(N)nc(Nc2ccc(C#N)cc2)n1 | – | 6 | – | – | 6600 | – | 1090 | – | 39 | – | – | – | – | – |

Source: ChEMBL document CHEMBL5131537 (J Med Chem, 2022)
